Data taken from publication PMC11359702, “Synthesis and Biochemical Evaluation of Ethanoanthracenes and Related Compounds: Antiproliferative and Pro-Apoptotic Effects in Chronic Lymphocytic Leukemia (CLL)” (Pharmaceuticals, 2024).
Where “and” joins values, the source holds several entries; their conditions need not be identical. Identical values can stand only once. Like-named read-outs stand apart in the source and are kept apart here.

Key:
[1] = tested on: SNB-75; assay: NCI-60 five-dose assay; type: cell-based, human
Description: (§1) A number of our most promising compounds identified through preliminary cell viability testing (23c, 23d, 23f, 23h, 23l, 23m, 23n, 23o, 24f, 24l, 25n and 26n) were selected for NCI drug screening in the 60-cell-line panel. The panel includes nine subcategories based on cancer tissue types, which include leukemia, ovarian, central nervous system, breast, lung, prostate, skin, renal and colon cancer. The compounds were initially assessed in a one-dose assay at a fixed treatment concentration of 10 µM. The compounds selected for further investigation were progressed to a five-dose assay across the concentration ranges of 0.01, 0.1, 1, 10 and 100 µM [72]. The endpoints assessed in the screening protocol were GI50, TGI and LC50 [72].

[2] = tested on: NCI-H23; assay: NCI-60 five-dose assay; type: cell-based, human
Description: as §1

[3] = tested on: OVCAR-5; assay: NCI-60 five-dose assay; type: cell-based, human
Description: as §1

[4] = tested on: KM12; assay: NCI-60 five-dose assay; type: cell-based, human
Description: as §1

[5] = tested on: OVCAR-3; assay: NCI-60 five-dose assay; type: cell-based, human
Description: as §1

[6] = tested on: NCI-H226; assay: NCI-60 five-dose assay; type: cell-based, human
Description: as §1

[7] = tested on: SF-268; assay: NCI-60 five-dose assay; type: cell-based, human
Description: as §1

[8] = tested on: HCT-15; assay: NCI-60 five-dose assay; type: cell-based, human
Description: as §1

[9] = tested on: A549/ATCC; assay: NCI-60 five-dose assay; type: cell-based, human
Description: as §1

[10] = tested on: M14; assay: NCI-60 five-dose assay; type: cell-based, human
Description: as §1

[11] = tested on: breast cancer cell lines; assay: NCI-60 five-dose assay, breast cancer cell lines; type: cell-based, human; settings: range over breast cancer cell lines
Description: as §1

[12] = tested on: HL-60(TB); assay: NCI-60 five-dose assay; type: cell-based, human
[13] = tested on: CCRF-CEM; assay: NCI-60 five-dose assay; type: cell-based, human
[14] = tested on: NCI 60 cancer cell line panel; assay: NCI-60 five-dose assay, full-panel means; type: cell-based
Method in brief: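 NCI 60-cell-line screen: one-dose test at 10 µM, then selected compounds run in five-dose format at 0.01, 0.1, 1, 10 and 100 µM. Endpoints derived were GI50, TGI and LC50.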

[15] = tested on: HG-3 cells; assay: alamarBlue cell viability assay; settings: HG-3, 24 h; for IC50: read-out: HG-3 IC50; for viability at 10 µM: read-out: cell viability, HG-3, 10 µM, 24 h, vehicle = 100%
[16] = tested on: MOLT-4; assay: NCI-60 five-dose assay; type: cell-based, human
[17] = tested on: HG-3 cells; assay: Annexin V/PI apoptosis assay (FACS); type: cell-based, human
Description: (§2) The pro-apoptotic effects of selected nitrovinylethanoanthracene compounds 20a and 20f and anthracene chalcones 23a and 25n in HG-3 cells and PGA-1 cells was then investigated using FITC (fluorescein isothiocyanate), Annexin V/PI (propidium iodide) and FACS (fluorescence-activated cell sorting) analysis to characterize the mode of cellular death induced. Apoptosis was assessed as % total apoptosis (total of early (Q3) and late (Q2) apoptosis).
(§3) CLL cells PGA-1 and HG-3 (1 × 10^6 cells/mL) were treated at 37 °C with either the vehicle (1% (v/v) DMSO) or the ethanoanthracene compounds 20a, 20f, 23a and 25n (10 µM, 5 µM and 1 µM) for 48 h, following the protocol previously described. The cells were then harvested via centrifugation at 400× g in a temperature-controlled Sorvall centrifuge. The cells were rinsed with Ca^2+ Annexin-V-binding buffer (0.1 M HEPES, pH 7.4; 0.14 M NaCl; 25 mM CaCl2, 0.5 mL). The samples were resuspended in FITC Annexin V (diluted 1:33 in Ca^2+ Annexin V-binding buffer, 50 µL) and incubated for 10 min (on ice and protected from light). The samples were washed with Annexin-V-binding buffer and resuspended in a PI solution (0.5 µg/mL, 500 µL) and analyzed within 1 h using a BD Accuri C6 flow cytometer counting 10,000 cells using the FlowJo software Version 10 (FlowJo LLC, Ashland, OR, USA).

[18] = tested on: PGA-1 cells; assay: Annexin V/PI apoptosis assay (FACS); type: cell-based, human; settings: PGA-1, 10 µM
Description: as §2, §3

[19] = tested on: healthy-donor peripheral blood mononuclear cells (PBMCs); assay: Annexin V/PI assay in donor PBMCs; type: cell-based; settings: 48 h
From the text: Whole blood samples from healthy donors (×5) were isolated, prepared and treated following the protocol previously described. The percentage of apoptosis observed in the treatment of isolated donor PBMCs with nitrovinylethanoanthracene 20a is concentration-dependent (Figure 11A). […] For ethanoanthracene 23a, the percentage of total apoptosis observed is illustrated in Figure 11B. […] The percentage of total apoptosis observed in the treatment of isolated donor PBMCs with the anthracene–chalcone 25n (normalized against vehicle 0.5% v/v DMSO) is illustrated in Figure 11C, and the dose-response behavior was also concentration-dependent, with compound 25n moderately toxic to healthy-donor PBMCs when treated at a 5.00 µM concentration (39%).
The human peripheral blood mononuclear cells (PBMCs) were generated as follows: peripheral blood was obtained from healthy donors (n = 2) after informed consent was received. The blood was then placed into a 50-mL falcon tube and diluted with an equal volume of phosphate-buffered saline (PBS). PBMCs were isolated using density-gradient centrifugation with LymphoPrep, as described previously. The cells were resuspended in RPMI media containing 10% FBS and 1% penicillin/streptomycin (P/S). The cells were counted using a haemocytometer and seeded into 96 well plates at a density of 1 × 10^5 cells/well (200 µL), and they were incubated at 37 °C for 1 h prior to compound treatment. The Annexin V/PI assay was used as a preliminary method of assessing the selective toxicity of the above compounds when compared with a previous alamarBlue cell viability assay in CLL cell lines. The assay was carried out as described above for the Annexin V/PI assay previously described above, and it was completed in triplicate on two independent days. Approval for this study was obtained from the School of Pharmacy and Pharmaceutical Sciences Trinity College Dublin Research Ethics Committee (2020-06-01-MS).

[20] = mean over NCI 60 cell line panel
[21] = Homo sapiens, mean over NCI 60 cell line panel, read-out: Mean GI50 (MID GI50, full-panel mean-graph mid-point)
[22] = Homo sapiens, mean over NCI 60 cell line panel, read-out: Mean LC50 (MID LC50)

| Compound | GI50 ([12]; HL-60(TB)) [nM] | GI50 [13] [nM] | Mean TGI (MID TGI, total growth inhibition) [14, 20] [µM] | GI50 ([16]; MOLT-4) [nM] | GI50 ([2]; Homo sapiens) [nM] | GI50 ([3]; Homo sapiens) [nM] | GI50 ([4]; Homo sapiens) [nM] | GI50 ([5]; Homo sapiens) [nM] | GI50 ([6]; Homo sapiens) [nM] | GI50 ([7]; Homo sapiens) [nM] | GI50 ([8]; Homo sapiens) [nM] | GI50 ([9]; Homo sapiens) [nM] | GI50 ([10]; Homo sapiens) [nM] | GI50 ([11]; Homo sapiens) [nM] | GI50 [14, 21] [nM] | CC50 [14, 22] [µM] | IC50 ([15]; Homo sapiens) [nM] | GI50 ([16]; Homo sapiens, MOLT-4, MOLT-4) [nM] | total apoptosis (early Q3 + late Q2) ([17]; HG-3, 1 µM) [%] | total apoptosis (early Q3 + late Q2) ([17]; HG-3, 10 µM) | also measured |
| --- | --- | --- | --- | --- | --- | --- | --- | --- | --- | --- | --- | --- | --- | --- | --- | --- | --- | --- | --- | --- | --- |
| O=C(/C=C/C12c3ccccc3C(c3ccccc31)C1C(=O)NC(=O)C12)c1ccc(Cl)cc1 (racemic) [Compound 23l, (E)-9-(3-(4-Chlorophenyl)-3-oxoprop-1-en-1-yl)-9,10-dihydro-9,10-[3,4]epipyrroloanthracene-12,14-dione] | 1470 | 1660 | 4.265 | 1700 | – | – | – | – | – | – | – | – | – | – | – | – | – | – | – | – | GI50 [1]: 1100 nM; GI50 [2]: 1780 nM; GI50 [3]: 1580 nM; GI50 [4]: 2140 nM; GI50 [5]: 1630 nM; GI50 [6]: 1920 nM; GI50 [7]: 1990 nM; GI50 [8]: 1470 nM; GI50 [9]: 2400 nM; GI50 [10]: 1650 nM; GI50 [11]: 1340 to 1940 nM; CC50 [14]: 13.2 µM; GI50 ([14]; mean over NCI 60 cell line panel, read-out: Mean GI50 (MID GI50, full-panel mean-graph mid-point)): 1620 nM; IC50 [15]: 2230 nM |
| O=C(/C=C/C12c3ccccc3C(c3ccccc31)C1C(=O)NC(=O)C12)c1ccc(F)cc1 (racemic) [Compound 23h] | – | – | 4.265 | 759 | 2610 | 1600 | 2180 | 1440 | 2040 | 4560 | 1190 | 2370 | 2140 | 885 to 1880 | 1700 | 14.5 | 4650 | 460 | – | – | GI50 ([1]; Homo sapiens): 1370 nM |
| O=C(C=CC12c3ccccc3C(c3ccccc31)C1C(=O)N(c3ccc(Cl)cc3)C(=O)C12)c1ccccn1 (stereo not shown) [Compound 25n, (E)-13-(4-Chlorophenyl)-9-(3-oxo-3-(pyridin-2-yl)prop-1-en-1-yl)-9,10-dihydro-9,10-[3,4]epipyrroloanthracene-12,14-dione] | 292 | 321 | – | 366 | 446 | 568 | 344 | 222 | 293 | 699 | 213 | 390 | 344 | 295 to 627 | 245 | 18.6 | 1310 | 320 | 37 | 82–95% and 93% | total apoptosis (early Q3 + late Q2) [18]: 87–97% and 87%; GI50 ([12]; Homo sapiens, HL-60, HL-60(TB)): 290 nM; total apoptosis (toxicity) in healthy-donor PBMCs ([19]; 5 µM): 39%; GI50 ([13]; Homo sapiens): 320 nM; GI50 ([14]; Homo sapiens, heatmap Figure 8, concentration in molar, read-out: Log 10 GI-50 Mean (converted)): 389 nM; IC50 ([14]; Homo sapiens, heatmap Figure 8, concentration in molar, read-out: Log 10 IC-50 Mean (converted)): 741 nM; CC50 ([14]; Homo sapiens, heatmap Figure 8, concentration in molar, read-out: Log 10 LC-50 Mean (converted)): 41.7 µM; viability at 1 µM ([15]; Homo sapiens, read-out: cell viability, HG-3, 1 µM, 24 h, vehicle = 100%): 30%; viability at 10 µM ([15]; Homo sapiens): 2% |
| O=C(C=CC12c3ccccc3C(c3ccccc31)C1C(=O)NC(=O)C12)c1ccc(Br)cc1 (stereo not shown) [Compound 23a, 9-(E)-3-(4-Bromophenyl)-3-oxoprop-1-en-1-yl)-9,10-dihydro-9,10-[3,4]epipyrroloanthracene-12,14-dione] | – | – | – | – | – | – | – | – | – | – | – | – | – | – | – | – | 2690 | – | 33 | 82–95% and 95% | total apoptosis (early Q3 + late Q2) [18]: 87–97% and 89%; total apoptosis (toxicity) in healthy-donor PBMCs ([19]; 5 µM): 28%; total apoptosis (toxicity) in healthy-donor PBMCs ([19]; 1.25–2.5 µM): 5–14%; viability at 10 µM ([15]; Homo sapiens): 0.5% |
